Our source for the IC50, IC90 and growth inhibition values is PubChem BioAssay AID493198 (Southern Research Specialized Biocontainment Screening …, 2011).

Activity calls are given as the source filed them. How the calls were made is not given here. Where a SMILES comes first, the peptide text is derived from it.

The subject of assay [1] is Mycobacterium tuberculosis H37Rv growth in 7H9 media. Description: M. tuberculosis growth inhibition, dose response, H37Rv, purified and synthesized compounds (AID 493198). The conditions noted are these: for IC90: 90% growth inhibition concentration.
Experiment in assay [2]: as above
Particulars: Mycobacterium tuberculosis H37Rv growth in 7H9 media; at 100 µM (top of the series).

Usually IC50 stands for the concentration that inhibits the measured activity by half. For orientation: IC90 means the point of the concentration-response curve where the effect stands at 90%. As for `CC(=NCc1ccc2c(c1)OCO2)C1=C(O)c2ccccc2C1=O`, in assay [1], the IC50 is less than 200 nM and the IC90 amounted to 23100 nM.

As to `O=C(/C=C/c1ccccc1)N1CCN(CCN2C(=O)c3cccc4cccc(c34)C2=O)CC1`, in assay [1], the IC50 is 3470 nM and the concentration for an effect of 90% (IC90) was determined as 5320 nM.

For `O=C1C(Br)=Cc2cccc3cccc1c23`, in assay [1], the IC50 was less than 200 nM and the 90% effect concentration (IC90) is less than 200 nM.

For `COC(=O)CCc1nc2c(C#N)c(-c3ccc(Cl)cc3)ccn2n1`, in assay [1], the half-inhibitory concentration (IC50) was less than 200 nM and the IC90 turned out to be 14000 nM.

For `CCc1ccc(/C=C2/C(=O)N(C)C(=S)N2CC(=O)OC)s1`, in assay [1], the IC50 was 2270 nM and the IC90 was determined as 17700 nM.

On to `CNc1nc(SCc2ccccc2Cl)nc2c1CCCC2`, for which, in assay [1], the half-inhibitory concentration (IC50) is less than 200 nM and the IC90 was determined as 5050 nM.

As to `COc1cc(NC(=O)C/C(C)=N/NC(=O)c2ccccn2)c(OC)cc1Cl`, in assay [1], the IC50 is 1940 nM and the concentration for an effect of 90% (IC90) came out at 4880 nM.

For `O=C(/C=C\c1cccs1)N1CCN(Cc2ccc3c(c2)OCO3)CC1`, in assay [1], the half-maximal inhibitory concentration (IC50) is 445 nM and the 90% effect concentration (IC90) came to 7480 nM.

As for `Cc1nn2c(NCc3ccccn3)cc(C(C)C)nc2c1-c1ccccc1`, in assay [1], the concentration for half-maximal inhibition (IC50) was 1030 nM and the concentration for an effect of 90% (IC90) was 1560 nM.

With `CC(C)NC(=O)c1sc(=S)n2c1[nH]c(=O)c1ccc(C(=O)NCCc3ccc(Cl)cc3)cc12`, in assay [1], the IC50 is less than 200 nM and the IC90 was less than 200 nM.

As for `O=C(NCC(c1cccs1)N1CCOCC1)c1cc([N+](=O)[O-])cc([N+](=O)[O-])c1` (centres undefined), in assay [1], the IC50 is less than 200 nM and the concentration for an effect of 90% (IC90) was less than 200 nM.

As to `S=c1nc[nH]c2nc[nH]c12`, in assay [1], the half-maximal inhibitory concentration (IC50) is 1280 nM and the IC90 is 1760 nM.

As for `CCOC(=O)COn1c2c(c3c4no[n+]([O-])c4ccc31)CCCC2`, in assay [1], the half-inhibitory concentration (IC50) is 1580 nM and the concentration for an effect of 90% (IC90) was determined as 3110 nM.

For the compound `O=C(CSc1nc2ccccc2c(=O)[nH]1)NC1CCCCC1`, in assay [1], the IC50 was less than 200 nM and the 90% effect concentration (IC90) was less than 200 nM.

For the compound `COC(=O)C1CC(=O)N(c2ccc(OCc3ccccc3Cl)cc2)C1` (centres undefined), in assay [1], the half-maximal inhibitory concentration (IC50) was less than 200 nM and the IC90 is 18400 nM.

Turning to `Cc1ccc2ccc3ccc(C)nc3c2n1`, in assay [1], the concentration for half-maximal inhibition (IC50) is less than 200 nM and the IC90 is less than 200 nM.

With `CCC(C)Nc1ccc(NC(C)CC)cc1` (centres undefined), in assay [1], the half-maximal inhibitory concentration (IC50) was 609 nM and the IC90 was found to be 1660 nM.

As to `Cc1nc(SCC(=O)NC2CCCCC2)[nH]c(=O)c1C`, in assay [1], the IC50 is less than 200 nM and the 90% effect concentration (IC90) was less than 200 nM.

As for `c1ccc(/N=C2\N=C(Nc3ccccn3)c3ccccc32)nc1`, in assay [1], the IC50 was less than 200 nM and the IC90 was less than 200 nM.

Turning to `O=C(CSc1nc2ccccc2c(=O)[nH]1)NCc1ccc(Cl)cc1`, in assay [1], the IC50 was less than 200 nM and the IC90 came to 929 nM.

On to `COC(=O)c1cc(=O)n(-c2ccc(F)cc2)c(=Nc2ccc(F)cc2)s1`, for which, in assay [1], the IC50 is less than 200 nM and the concentration for an effect of 90% (IC90) worked out at 1580 nM.

With `Cc1ccc(NC(=O)C2C3/C=C\CCCCC32)cc1C` (centres undefined), in assay [1], the concentration for half-maximal inhibition (IC50) is 1170 nM and the IC90 came out at 1840 nM.

For the compound `CCOC(=O)c1ccc(NC(=O)Cn2ncc(Cl)c(Cl)c2=O)cc1`, in assay [1], the half-maximal inhibitory concentration (IC50) was less than 200 nM and the concentration for an effect of 90% (IC90) was determined as 203 nM.

For `Cc1ccc2c(c1)c(C1=c3ccccc3=NC1=O)c(O)n2C`, in assay [1], the IC50 is less than 200 nM and the IC90 worked out at 1870 nM.

Regarding `Oc1ccccc1/C=N/Nc1ccnc(SCc2ccccc2)n1`, the growth inhibition in assay [2] was 2.04% (inactive).

For the compound `CCOC(=O)CNC(=O)[C@H](Cc1ccccc1)NC(=O)OCc1ccccc1` (HELM PEPTIDE1{[O=C(OCc1ccccc1)[*:2]].F.G.[CCO[*:1]]}$$$$V2.0), in assay [1], the half-inhibitory concentration (IC50) was 1090 nM and the IC90 was determined as 1860 nM.

On to `CCOC(=O)C(C)Sc1ncnc2c1nnn2-c1ccc(F)cc1` (centres undefined), for which, in assay [1], the 50% inhibitory concentration (IC50) was less than 200 nM and the concentration for an effect of 90% (IC90) was found to be 7770 nM.

`CCOC(=O)COc1ccc(/C=C2\NC(=S)N(CC)C2=O)cc1`: in assay [1], the half-inhibitory concentration (IC50) is 1310 nM and the IC90 worked out at 5200 nM.

With `Cc1cccc(/C=C/C(=O)c2ccc([N+](=O)[O-])o2)c1`, in assay [1], the IC50 is less than 200 nM and the IC90 is less than 200 nM.

With `COC(=O)C(C)Oc1ccc(-c2nccc(-c3ccccn3)n2)cc1` (centres undefined), in assay [1], the IC50 is 1190 nM and the IC90 was found to be 2920 nM.
